Experimental data published in patent publication US20260083865A1, “PROSTATE SPECIFIC MEMBRANE ANTIGEN (PSMA) LIGANDS AND USE THEREOF” (priority 2022, published 2026).
Read-outs that look alike come from different tables or passages of the source. Numbered stars: 1 amine (or outer) side, 2 acyl side, 3 side chain; on linkers, the order of the positions; unused ones are H or OH. Bridge positions count the residues as written; N and C are the ends. Square brackets hold non-standard residues; d marks the D form. Peptide text beside a SMILES is read from it. * marks the point of attachment. DOTA = O=C(O)CN1CCN(CC(=O)O)CCN(CC(=O)*)CCN(CC(=O)O)CC1; Oic = O=C(O)[C@@H]1C[C@@H]2CCCC[C@@H]2N1; Phe(3-Cl) = N[C@@H](Cc1cccc(Cl)c1)C(=O)O; Phe(4-Cl) = N[C@@H](Cc1ccc(Cl)cc1)C(=O)O; X1 = O=C(CC1CCN([*:1])CC1)[*:2]; Cit = NC(=O)NCCC[C@H](N)C(=O)O; Tle = CC(C)(C)[C@H](N)C(=O)O; Pyridin(2-yl) = c1ccc(*)nc1; Orn = NCCC[C@H](N)C(=O)O; NHCH2tBu = CC(C)(C)CN*; Aib = CC(C)(N)C(=O)O; CO = O=C([*:1])[*:2]; NHBu = CCCCN*

Legend:
[1] = biological target: T1, PSMA-expressing C4-2 cells (Homo sapiens, UniProt Q04609); test: FACS binding assay (competition with 50 nM PSM-0183); conditions: C4-2 cells, read-out: pIC50 [C4-2] CAT (converted)
T1 construct: PSMA-expressing C4-2 cells (ATCC, Cat. No. CRL-3314) were cultured in RPMI-1640; host or cells: C4-2 cells
T1 sequence (Q04609 whole entry): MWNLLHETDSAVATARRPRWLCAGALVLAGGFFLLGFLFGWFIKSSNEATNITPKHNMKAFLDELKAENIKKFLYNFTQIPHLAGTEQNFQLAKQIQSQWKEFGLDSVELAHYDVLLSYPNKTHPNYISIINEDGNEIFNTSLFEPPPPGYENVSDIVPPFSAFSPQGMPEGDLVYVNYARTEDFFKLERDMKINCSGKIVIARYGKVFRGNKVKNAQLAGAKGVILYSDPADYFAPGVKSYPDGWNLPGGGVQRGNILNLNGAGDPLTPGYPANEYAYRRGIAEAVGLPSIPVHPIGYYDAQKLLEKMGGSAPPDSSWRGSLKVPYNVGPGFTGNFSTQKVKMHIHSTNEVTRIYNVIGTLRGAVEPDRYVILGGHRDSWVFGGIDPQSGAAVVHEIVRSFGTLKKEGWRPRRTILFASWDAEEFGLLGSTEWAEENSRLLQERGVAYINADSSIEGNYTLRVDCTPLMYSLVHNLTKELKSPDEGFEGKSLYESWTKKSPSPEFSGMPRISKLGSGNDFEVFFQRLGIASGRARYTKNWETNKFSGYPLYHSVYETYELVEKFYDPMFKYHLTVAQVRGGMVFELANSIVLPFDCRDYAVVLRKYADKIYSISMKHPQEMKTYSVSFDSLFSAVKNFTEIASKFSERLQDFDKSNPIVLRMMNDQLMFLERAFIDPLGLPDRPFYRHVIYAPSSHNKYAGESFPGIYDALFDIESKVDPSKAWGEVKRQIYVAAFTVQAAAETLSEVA
In short: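 C4-2 cells were incubated 1 h at 4 °C with 50 nM AF488-labelled peptide PSM-0183 plus increasing test compound concentrations, then washed twice in ice-cold buffer. Median fluorescence in the AF488 channel was read by flow cytometry. IC50/pIC50 was derived by 4PL fitting of MFI versus concentration.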

[2] = biological target: T2, Fc-fusion protein of human PSMA (hPSMA-Fc) (Homo sapiens, UniProt Q04609); test: Surface plasmon resonance assay (Biacore T200, single cycle kinetic); type: binding; conditions: read-out: pKD CAT (converted)
T2 construct: purchased Acro Biosystems PSA-H5264
T2 sequence (Q04609 44-750 limits assumed): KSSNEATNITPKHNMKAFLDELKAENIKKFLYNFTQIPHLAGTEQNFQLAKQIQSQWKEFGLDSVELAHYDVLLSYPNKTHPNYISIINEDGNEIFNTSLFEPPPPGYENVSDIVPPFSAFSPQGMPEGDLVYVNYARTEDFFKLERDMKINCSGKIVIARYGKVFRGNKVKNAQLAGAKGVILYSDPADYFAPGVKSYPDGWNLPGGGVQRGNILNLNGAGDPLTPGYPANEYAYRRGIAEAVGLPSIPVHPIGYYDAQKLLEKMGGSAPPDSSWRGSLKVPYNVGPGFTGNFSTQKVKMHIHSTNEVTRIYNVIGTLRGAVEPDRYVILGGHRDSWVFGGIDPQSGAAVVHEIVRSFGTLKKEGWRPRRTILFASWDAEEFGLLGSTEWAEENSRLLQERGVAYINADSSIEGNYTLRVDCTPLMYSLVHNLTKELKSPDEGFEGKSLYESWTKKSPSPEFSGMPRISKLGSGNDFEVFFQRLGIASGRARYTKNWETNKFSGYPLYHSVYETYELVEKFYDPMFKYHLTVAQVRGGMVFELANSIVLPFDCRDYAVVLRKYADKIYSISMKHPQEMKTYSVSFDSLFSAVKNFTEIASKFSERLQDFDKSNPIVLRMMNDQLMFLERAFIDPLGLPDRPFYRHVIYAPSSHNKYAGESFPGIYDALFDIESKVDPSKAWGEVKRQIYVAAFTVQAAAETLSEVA
In short: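 hPSMA-Fc was captured (~1000 RU) on an Fc-binding-peptide CM5 chip, and compounds were run in single cycle kinetic mode at 25° C in HBST with 0.1% DMSO. Double-blank-corrected sensorgrams were fitted to a 1:1 Langmuir model to give KD, reported as pKD.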

[3] = pKD category for PSMA SPR activity assay, hPSMA-Fc, 25° C.
[4] = FACS binding, competition with 50 nM PSM-0183, category
[5] = SPR, hPSMA-Fc, single cycle kinetic, 25° C., category

Row | SMILES | IC50 ([1]; pIC50 category of FACS binding) | Kd [2, 3] | IC50 [1, 4] | Kd [2, 5] | IC50 ([1]; FACS binding, category) | Kd ([2]; PSMA SPR assay, category)
1 | CC(=O)N[C@H](C(=O)NC(C)(C)C(=O)N[C@@H](Cc1ccccc1)C(=O)N[C@H]1CSSC[C@@H](C(=O)N[C@H](C(=O)N[C@H](C(=O)N[C@@H](CC(=O)O)C(N)=O)[C@@H](C)O)C(C)(C)C)NC(=O)[C@H](CC(N)=O)NC(=O)[C@@H]2C[C@@H]3CCCC[C@@H]3N2C(=O)[C@H](CCCNC(=N)N)NC(=O)[C@H](CCCCN)NC1=O)[C@@H](C)O [PSM-0403, Ac-Thr-Aib-Phe-[Cys-Lys-Arg-Oic-Asn-Cys]-Tle-Thr-Asp-NH2] (Ac-T[Aib]FCKR[Oic]NC[Tle]TD-NH2; disulfide 4-9) | < 0.2 µM | < 0.0126 µM |  |  |  | 
2 | C[C@@H](O)[C@H](NC(=O)[C@@H](NC(=O)[C@@H]1CSSC[C@H](NC(=O)[C@H](Cc2ccccc2)NC(=O)C(C)(C)NC(=O)CN2CCN(CC(=O)O)CCN(CC(=O)O)CCN(CC(=O)O)CC2)C(=O)N[C@@H](CCCCN)C(=O)N[C@@H](CCCNC(=N)N)C(=O)NC(C)(C)C(=O)N[C@@H](CC(N)=O)C(=O)N1)C(C)(C)C)C(N)=O [PSM-0447, DOTA-Aib-Phe-[Cys-Lys-Arg-Aib-Asn-Cys]-Tle-Thr-NH2] ({DOTA}-[Aib]FCKR[Aib]NC[Tle]T-NH2; disulfide 3-8) | > 3.16 µM | > 0.501 µM |  |  |  | 
3 | CC(=O)N[C@H](C(=O)NC(C)(C)C(=O)N[C@@H](Cc1ccc(Cl)cc1)C(=O)N[C@H]1CSSC[C@@H](C(=O)N[C@H](C(=O)N[C@H](C(N)=O)[C@@H](C)O)C(C)(C)C)NC(=O)[C@H](Cc2c[nH]c3ccccc23)NC(=O)C(C)(C)NC(=O)[C@H](CCCNC(N)=O)NC(=O)[C@H](CCCCN)NC1=O)[C@@H](C)O [PSM-0238, Ac-Thr-Aib-Pcf-[Cys-Lys-Cit-Aib-Trp-Cys]-Tle-Thr-NH2] (Ac-T[Aib][Phe(4-Cl)]CK[Cit][Aib]WC[Tle]T-NH2; disulfide 4-9) |  |  | < 0.2 µM | < 0.0126 µM |  | 
4 | CCCCNC(=O)N[C@H](C(=O)NC(C)(C)C(=O)N[C@@H](Cc1cccc(Cl)c1)C(=O)N[C@H]1CSSC[C@@H](C(=O)N[C@H](C(=O)N[C@H](C(=O)N2CCC(CC(=O)N[C@H](CCCCNC(=O)CN3CCN(CC(=O)O)CCN(CC(=O)O)CCN(CC(=O)O)CC3)C(N)=O)CC2)[C@@H](C)O)C(C)(C)C)NC(=O)[C@H](CC(N)=O)NC(=O)C(C)(C)NC(=O)[C@H](CCCNc2ccccn2)NC(=O)[C@H](CCCCN)NC1=O)[C@@H](C)O [PSM-0571, nBuCAyl-Thr-Aib-Mcf-[Cys-Lys-Opy-Aib-Asn-Cys]-Tle-Thr-Cmp-lys(DOTA)-NH2] ({NHBu-CO}-T[Aib][Phe(3-Cl)]CK[Orn](Pyridin(2-yl))[Aib]NC[Tle]T[X1][dK](DOTA)-NH2; disulfide 4-9) |  |  |  |  | 0.2 to 1.26 µM | 0.0126 to 0.126 µM
5 | CC(=O)N[C@H](C(=O)NC(C)(C)C(=O)N[C@@H](Cc1ccccc1)C(=O)N[C@H]1CSSC[C@@H](C(=O)NCC(C)(C)C)NC(=O)[C@H](CC(N)=O)NC(=O)C(C)(C)NC(=O)[C@H](CCCNC(=N)N)NC(=O)[C@H](CCCCN)NC1=O)[C@@H](C)O [PSM-0208, Ac-Thr-Aib-Phe-[Cys-Lys-Arg-Aib-Asn-Cys]-NHnPen] (Ac-T[Aib]FCKR[Aib]NC-NHCH2tBu; disulfide 4-9) |  |  | 0.2 to 1.26 µM | 0.126 to 0.501 µM |  | 
6 | CC(=O)NC(=N)NCCC[C@@H]1NC(=O)[C@H](CCCCN)NC(=O)[C@@H](NC(=O)[C@H](Cc2ccc(Cl)cc2)NC(=O)C(C)(C)NC(=O)[C@@H](NC(C)=O)[C@@H](C)O)CSSC[C@@H](C(=O)N[C@H](C(=O)N[C@H](C(N)=O)[C@@H](C)O)C(C)(C)C)NC(=O)[C@H](CC(N)=O)NC(=O)C(C)(C)NC1=O [PSM-0569, Ac-Thr-Aib-Pcf-[Cys-Lys-Arg(Ac)-Aib-Asn-Cys]-Tle-Thr-NH2] (Ac-T[Aib][Phe(4-Cl)]CKR(Ac)[Aib]NC[Tle]T-NH2; disulfide 4-9) |  |  |  |  | < 0.2 µM | < 0.0126 µM
